One compound from patent US20070270350A1, “Methods and Compositions for the Prevention and Treatment of Inflammatory Diseases or Conditions” (MUSC FOUNDATION FOR RESEARCH DEVELOPMENT, priority 2003, published 2007) can be followed below.

Data set [1] concerns iNOS. The data set is described as follows: LPS/IFN-induced NO production and iNOS gene expression in primary astrocytes. It counts as cell-based, rat. To be noted: D-PDMP 0, 10, 25, 50 μM, 0.5 h pretreatment.
The subject of data set [2] is iNOS. Put plainly: LPS/IFN-induced NO production and iNOS expression in C6 glioma cells. It counts as cell-based, rat. To be noted: D-PDMP 10, 25, 50 μM, 0.5 hr pretreatment. Here is the method: C6 rat glioma cells obtained from ATCC were maintained in Dulbecco's modified Eagle's medium (DMEM) (GIBCO, CA) containing 10% fetal bovine serum (FBS) (GIBCO) and 10 ? g/ml gentamicin. All the cultured cells were maintained at 37° C. in 5% CO2/95% air. At 80% confluency, the cells were incubated with serum free DMEM medium for 24 h prior to the incubation with LPS/IFN ? and other chemicals. Assay for NO production. Cells were cultured in 12-well plastic tissue culture plates. After the appropriate treatment, production of NO was determined by an assay of the culture supernatant for nitrite (Green et al., 1982). Briefly, 100 μl of culture supernatant was allowed to react with 100 μl of Griess reagent. The optical density of the assay samples was measured spectrophotometrically at 570 nm. Nitrite concentrations were calculated from a standard curve derived from the reaction of NaNO2 in fresh media. Western Blot Analysis. […] The protein concentration of samples was determined with the detergent compatible protein assay reagent (Bio-Rad Laboratories, CA) using bovine serum albumin (BSA) as the standard. Sample was boiled for 3 min with 0.1 volumes of 10% O-mercaptoethanol and 0.5% bromophenol blue mix. Fifty μg of total cellular protein was resolved by electrophoresis in 8 or 12% polyacrylamide gels, electro-transferred to polyvinylidene difluoride (PVDF) filter and blocked with Tween 20 containing Tris-buffered saline [TBST; 10 mM Trizma base (pH 7.4), 1% Tween 20, and 150 mM NaCl] with 5% skim milk. After incubation with antiserum against iNOS (BD PharMingen, CA), or hRas (Upstate Biotechnology, CA), or phospho-specific MAPK (p42/44) (Signal Transduction), in PVDF buffer for 2 h at room temperature, the filters were washed 3 times with TBST buffer and then incubated with horseradish peroxidase conjugated anti-rabbit or mouse IgG for 1 h. The membranes were autoradiographed by using ECL-plus (Amersham Pharmacia Biotech) after washing with TBST buffer. RT-PCR amplification. […] PCR amplification was conducted in 25 ? l of reaction mixture with 1.0 ? l of cDNA, […] and under the manufacturer's Taq polymerase conditions (Takara, […] Shuzo Co. Ltd, Japan). The sequence of primers used for PCR amplification are as follows; iNOS, (Forward-[NT], Reverse-[NT]), GalT-2 (Forward-[NT], Reverse-[NT]), GAPDH (Forward-[NT], Reverse-[NT]).

Data set [3] has as its system small GTPase Ras. The data set is described as follows: Quantification of Ras activation (GST-Raf-1 Ras binding domain). The data set is classed as cell-based, rat. To be noted: D-PDMP 50 μM pretreatment; LPS/IFN 5 mins. Here is the method:
Quantification of Ras Activation. After stimulation, primary astrocytes in 6 well plates were washed with PBS and lysed in membrane lysis buffer (MLB; 0.5 ml of 25 mM HEPES, pH7.5, 150 mM NaCl, 1% Igepal CA-630, 0.25% sodium deoxycholate, 10% glycerol, 10 mM MgCl2, 1 mM EDTA, 25 mM NaF, 1 mM of sodium orthovanadate, and EDTA free Complete™ protease inhibitor cocktail). After centrifugation (5,000×g) at 4° C. for 5 min, supernatant was used for Ras activation assay. One hundred μg of supernatant was used for binding with agarose conjugated Ras-binding domain (RBD) of Raf-1 which was expressed in BL21 (Invitrogen) Escherichia coli strain transformed by pGEX-2T-GST-RBD in the presence of 0.1 mM of IPTG as described previously (Herrmann et al., 1995). The binding reaction was performed at 4° C. for 30 min in MLB. Following washing with MLB three times, Ras-RBD complex were denatured by adding of 2×SDS sample buffer. Ras protein was identified by western immunoblot analysis with Ras antibodies from Upstate Biotechnology.

The test system of data set [4] is ERK1/2. The data set is described as follows: ERK1/2 phosphorylation by immunoblot after LPS/IFN. To be noted: D-PDMP pretreatment; LPS/IFN 20 minutes. The data set is classed as cell-based, rat. The protocol:
Western Blot Analysis. For iNOS protein, the cells were washed with cold Tris buffered saline (TBS; 20 mM Trizma base, and 137 mM NaCl, pH 7.5), lysed in 1×SDS sample loading buffer (62.5 mM Trizma base, 2% w/v SDS, 10% glycerol), following sonication and centrifugation at 1,5000×g for 5 min, the supernatant was used for the iNOS western immunoblot assay. The protein concentration of samples was determined with the detergent compatible protein assay reagent (Bio-Rad Laboratories, CA) using bovine serum albumin (BSA) as the standard. Sample was boiled for 3 min with 0.1 volumes of 10% O-mercaptoethanol and 0.5% bromophenol blue mix. Fifty μg of total cellular protein was resolved by electrophoresis in 8 or 12% polyacrylamide gels, electro-transferred to polyvinylidene difluoride (PVDF) filter and blocked with Tween 20 containing Tris-buffered saline [TBST; 10 mM Trizma base (pH 7.4), 1% Tween 20, and 150 mM NaCl] with 5% skim milk. After incubation with antiserum against iNOS (BD PharMingen, CA), or hRas (Upstate Biotechnology, CA), or phospho-specific MAPK (p42/44) (Signal Transduction), in PVDF buffer for 2 h at room temperature, the filters were washed 3 times with TBST buffer and then incubated with horseradish peroxidase conjugated anti-rabbit or mouse IgG for 1 h. The membranes were autoradiographed by using ECL-plus (Amersham Pharmacia Biotech) after washing with TBST buffer.

For data set [5], the system named is SCI rats. The data set is classed as in vivo.
The mark [6] stands for this setting: D-PDMP 20 mg/kg, 24 hrs following injury.

Structures are written as SMILES. Entries after “also recorded” stand apart in the source; their conditions may differ.

Consider `CCCCCCCCCC(=O)NC(CN1CCOCC1)C(O)c1ccccc1.Cl` [D-PDMP, D-threo-1-Phenyl-2-decanoylamino-3-morpholino-1-propanol HCl], for which the “production of nitric oxide (NO)” value in data set [1] (LPS/IFN 1 μg/ml, 10 U/ml, 24 hrs) is “dose dependent decrease”. Moreover, the “mRNA and protein levels of iNOS” value in data set [1] (LPS/IFN, mRNA 6 hrs, protein 24 hrs) is reported as “dose dependent decrease”. For the same compound, in data set [2], the “LPS/IFN induced NO production” value is “inhibited”; the “iNOS protein and mRNA levels” value was “inhibited”. In addition, the “LPS/IFN mediated activation of Ras” value in data set [3] is recorded as “reduced”. For the same compound, the “LPS/IFN induced phosphorylation of ERK 1/2” value in data set [4] is given as “inhibited”. The “iNOS mRNA and protein expression at the site of injury” value in data set [5] (D-PDMP 20 mg/Kg i.p. within 10 minutes following SCI, 12 hrs) is given as “markedly suppresses; also recorded: significantly lower”. In addition, in data set [5] (setting [6]), the “GFAP expression (immunofluorescence, lesion epicenter)” value is “significantly reduced” and the “iNOS expression (immunofluorescence, lesion epicenter)” value is recorded as “significantly reduced”. Moreover, in data set [5] (D-PDMP treated SCI rats), the “SCI induced white matter vacuolization and tissue necrosis (H&E)” value is “inhibited”; the “apoptosis of neurons and other cells (TUNEL/NeuN)” value is given as “protection against apoptosis”; the “demyelinization (LFB staining)” value is on record as “attenuated”. The “adverse effect on neuronal survival” value in data set [5] (D-PDMP treated sham operated animals) is recorded as “no adverse effect”.
